{"source": "patent US12551499B2", "about": "(Atea Pharmaceuticals, Inc., priority 2020, dated 2026)", "key": {"[1]": {"test_system": "human airway epithelial (HAE) cells", "test": "Cytotoxicity in dNHBE / HAE cells by visual inspection", "details": "visual toxicity, Table 11"}, "[2]": {"test_system": "human bronchial epithelial cells", "test": "Triphosphate formation in human bronchial epithelial cells", "details": "human nasal and bronchial epithelial cells, up to 100 μM"}, "[3]": {"test": "Plasma PK in non-human primates after oral Compound 2A", "details": "monkey plasma, oral Compound 2A 60 mg/kg then 30 mg/kg every 12 h, steady state"}, "RD cells": {"test_system": "RD cells", "details": "human"}, "Huh7 cells": {"test_system": "Huh7 cells", "test": "Visual cytotoxicity in uninfected Huh7 cells", "type": "cell-based, human", "experimental": "(§1) Huh7 cells were seeded in 96-well plates at a concentration that yielded 80-100% confluent monolayers in each well after overnight incubation. Compound 1A was dissolved in DMSO to 10 mg/mL and 8 half-log serial dilutions in test medium (modified Eagle's medium containing 5% fetal bovine serum and […] gentamicin) were prepared with the highest concentration of 50 μg/mL. 100 μL of each concentration were added to 5 test wells on the 96-well plate and 3 wells were infected with test virus in test medium (≤100 CCID50 per well). An equivalent amount of test medium was added to the remaining test wells to assess toxicity to uninfected cells. Six wells were infected to serve as untreated virus controls. Media only was added to 6 wells to serve as cell controls. Plates were incubated at 37° C. in a humidified 5% CO2 atmosphere until cytopathic effect (CPE) was observed microscopically."}, "[4]": {"test_system": "human coronavirus alpha-229E", "test": "Visual CPE assay, coronavirus alpha-229E in Huh7 cells", "type": "cell-based", "details": "Huh-7", "experimental": "as §1"}, "[5]": {"test_system": "human airway epithelial (HAE) cells"}, "MERS-CoV (EMC)": {"test_system": "MERS-CoV (EMC)", "type": "cell-based", "details": "MERS-CoV versus other CoVs"}, "SARS-CoV-2 (WA1)": {"test_system": "SARS-CoV-2 (WA1)", "test": "Virus yield reduction assay, SARS-CoV-2 in dNHBE / HAE cells", "type": "cell-based", "experimental": "The antiviral activity of Compound 1A was next evaluated against SARS-CoV-2 (WA1) using differentiated normal human bronchial epithelial (dNHBE; HAE (human airway epithelial) cells made to order by MatTek Corporation (Ashland, MA).\nCell Culture: dNHBE cells were grown on 6 mm mesh disks and arrived in kits with either 12- or 24-well transwell inserts. During transportation the tissues were stabilized on a sheet of agarose, which was removed upon receipt. One insert was estimated to consist of approximately 1.2×10^6 cells. Kits of cell inserts (EpiAirway™ AIR-100, AIR-112) originated from a single donor, #9831, a healthy, non-smoking person. The cells have unique properties in forming layers, the apical side of which is exposed only to air and that creates a mucin layer. Upon arrival, the cell transwell inserts were immediately transferred to individual wells of a 6-well plate according to manufacturer's instructions, and 1 mL of MatTek's proprietary culture medium (AIR-100-MM) was added to the basolateral side, whereas the apical side was exposed to a humidified 5% CO2 environment. Cells were cultured at 37° C. for one day before the start of the experiment. After the 24 hour equilibration period, the mucin layer, secreted from the apical side of the cells, was removed by washing with 400 μL pre-warmed 30 mM HEPES buffered saline solution 3×. Culture medium was replenished following the wash steps.\nViruses: Virus was diluted in AIR-100-MM medium before infection, yielding a multiplicity of infection (MOI) of approximately 0.0015 CCID50 per cell.\nThe cells were maintained at the air-liquid interface.\nDetermination of virus titers from each treated cell culture: Vero 76 cells were seeded in 96-well plates and grown overnight (37° C.) to confluence. Samples containing virus were diluted in 10-fold increments in infection medium and 200 μL of each dilution transferred into respective wells of a 96-well microtiter plate. Four microwells were used for each dilution to determine 50% viral endpoints. After 5 days of incubation, each well was scored positive for virus if any cytopathic effect (CPE) was observed as compared with the uninfected control and counts were confirmed for endpoint on days 6 and 7. […] The day 5 values were reported. Untreated, uninfected cells were used as the cell controls.\nThe antiviral activities of test compounds were evaluated against SARS-CoV-2 (USA-WA1/2020) using made to order human airway epithelial (HAE) cells.\nCell Culture: HAE cells were grown on 6 mm mesh disks and arrived in kits with either 12- or 24-well transwell inserts. During transportation the tissues were stabilized on a sheet of agarose, which was removed upon receipt. One insert was estimated to consist of approximately 1.2×10^6 cells. Kits of cell inserts (EpiAirway™ AIR-100 or AIR-112) originated from a single donor, #9831, a healthy, non-smoking person. The cells form polarized monolayers, the apical side of which is exposed to air and creates a mucin layer. Upon arrival, the cell transwell inserts were immediately transferred to individual wells of a 6-well plate according to the manufacturer's instructions, and 1 mL of MatTek's proprietary culture medium (AIR-100-MM) was added to the basolateral side, whereas the apical side was exposed to a humidified 5% CO2 environment. Cells were cultured at 37° C. in a humidified atmosphere containing 5% CO2 for one day before the start of the experiment. After the 24-h equilibration period, the mucin layer, secreted from the apical side of the cells, was removed by washing with 400 μL pre-warmed 30 mM HEPES buffered saline solution 3×. Culture medium was replenished following the wash steps.\nViruses: Virus was diluted in AIR-100-MM medium before infection to yield a MOI when added to cultures of approximately 0.0015 CCID50 per cell.\nSelect compounds of the present invention were tested in a SARS-CoV-2 assay. […]"}, "[6]": {"test_system": "human bronchial epithelial cells", "details": "10 μM"}, "in vivo": {"test": "in vivo", "details": "male, cynomolgus monkey, Mean Intracellular Compound 1-6 Concentration"}, "[7]": {"test_system": "human nasal epithelial cells", "details": "10 μM"}, "[8]": {"details": "male, cynomolgus monkey, in vivo, 12 h"}}, "note": "“And” between values parts separate entries of the source, which are not always exact repeats. Equal entries are not always repeated. Where two headings read alike, the source gives them in different places."}
{"smiles": "CCC(CC)COC(=O)[C@H](C)N[P@](=O)(OC[C@H]1O[C@@](C#N)(c2ccc3c(N)ncnn23)[C@H](O)[C@@H]1O)Oc1ccccc1", "note": "[Remdesivir]", "values": [{"measurement": "VYR Assay CC50", "setting": "[1]", "result": "no visual tox no visual tox no visual tox no visual tox"}]}
{"smiles": "CNc1nc(N)nc2c1ncn2[C@@H]1O[C@H](CO[P@@](=O)(N[C@@H](C)C(=O)OC(C)C)Oc2ccccc2)[C@@H](O)[C@@]1(C)F", "note": "[Compound 1A]", "values": [{"measurement": "toxicity", "setting": "[2]", "result": "no toxicity was observed"}, {"measurement": "cytotoxicity", "setting": "Huh-7 cells", "result": "No cytotoxicity was detected"}, {"measurement": "CC50", "setting": "Huh-7 cells; human", "result": "> 50000", "unit": "nM"}, {"measurement": "AUC0-12 h", "setting": "[3]", "result": 0.44, "unit": "µM·h"}, {"measurement": "Cmax", "setting": "[3]", "result": 640, "unit": "nM"}, {"measurement": "T1/2", "setting": "[3]", "result": 44.4, "unit": "min"}, {"measurement": "Tmax", "setting": "[3]", "result": "30 to 60", "unit": "min"}, {"measurement": "CC50", "setting": "RD cells", "result": "> 86000", "unit": "nM"}, {"measurement": "CC50", "setting": "Huh7 cells; Alpha-229E row", "result": "> 50000", "unit": "nM"}, {"measurement": "CC50", "setting": "Huh7 cells; Beta-OC43 row", "result": "> 50000", "unit": "nM"}, {"measurement": "EC50", "setting": "[4]", "result": 1000, "unit": "nM"}, {"measurement": "VYR Assay CC50", "setting": "[5]", "result": "no visual tox no visual tox no visual tox"}, {"measurement": "difference of activity between MERS-CoV and other CoVs", "setting": "MERS-CoV (EMC)", "result": 30, "unit": "fold"}, {"measurement": "replicate EC90 determinations", "setting": "SARS-CoV-2 (WA1); SARS-CoV-2 (WA1) in dNHBE, single replicates", "result": 0.41, "unit": "µg/mL"}, {"measurement": "EC90", "setting": "SARS-CoV-2 (WA1); SARS-CoV-2 in HAE (dNHBE) cells, Table 11, read-out: VYR Assay EC90", "result": "460 nM and 520 nM"}, {"measurement": "EC90", "setting": "SARS-CoV-2 (WA1); SARS-CoV-2 in HAE, footnotes f, g, h of Table 5, read-out: EC90, single replicates", "result": "700 nM and 420 nM"}, {"measurement": "EC90", "setting": "SARS-CoV-2 (WA1); Severe acute respiratory syndrome coronavirus 2, HAE, SARS-CoV-2 in HAE (dNHBE) cells, Table 11, read-out: VYR Assay EC90", "result": 630, "unit": "nM"}]}
{"smiles": "C[C@@]1(F)[C@H](O)[C@@H](COP(=O)(O)OP(=O)(O)OP(=O)(O)O)O[C@H]1n1cnc2c(=O)[nH]c(N)nc21", "note": "[Compound 1-6]", "values": [{"measurement": "Mean Intracellular Compound 1-6 Concentration", "setting": "[6]; 0 h", "result": 698, "unit": "µM"}, {"measurement": "Mean Intracellular Compound 1-6 Concentration", "setting": "[6]; 15 h", "result": 560, "unit": "µM"}, {"measurement": "Mean Intracellular Compound 1-6 Concentration", "setting": "[6]; 24 h", "result": 462, "unit": "µM"}, {"measurement": "Mean Intracellular Compound 1-6 Concentration", "setting": "[6]; 48 h", "result": 290, "unit": "µM"}, {"measurement": "Mean Intracellular Compound 1-6 Concentration", "setting": "[6]; 72 h", "result": 217, "unit": "µM"}, {"measurement": "concentration at 24 h", "setting": "in vivo", "result": 32, "unit": "nM"}, {"measurement": "Mean Intracellular Compound 1-6 Concentration", "setting": "[7]; 0 h", "result": 236, "unit": "µM"}, {"measurement": "Mean Intracellular Compound 1-6 Concentration", "setting": "[7]; 15 h", "result": 204, "unit": "µM"}, {"measurement": "Mean Intracellular Compound 1-6 Concentration", "setting": "[7]; 24 h", "result": 170, "unit": "µM"}, {"measurement": "Mean Intracellular Compound 1-6 Concentration", "setting": "[7]; 48 h", "result": 107, "unit": "µM"}, {"measurement": "Mean Intracellular Compound 1-6 Concentration", "setting": "[7]; 72 h", "result": 73.8, "unit": "µM"}, {"measurement": "Mean Intracellular Compound 1-6 Concentration", "setting": "[8]", "result": 0.089, "unit": "µM"}]}
